PubChem BioAssay AID256 (DTP/NCI, 2004)
Inconclusive results and toxic doses are left out. The calls were made as follows: active = survival T/C of 150% or more; inactive = T/C below 125% in these data.

Test system: CD2F1 mice, L1210 leukemia ip, survival T/C
Assay: NCI In Vivo Anticancer Drug Screen. Data for tumor model L1210 Leukemia (intraperitoneal) in CD2F1 (CDF1) mice
Details: endpoint: mean survival time, higher = longer survival
Method in brief: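 Activity against a transplanted murine tumor was judged by comparing the compound group with a vehicle group. The outcome in the treated animals was divided by that in the controls.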

[1] = dose: 100.0 mg/kg/injection, schedule: Q01DX001 (ip), vehicle: saline with Tween-80
[2] = dose: 100.0 mg/kg/injection, schedule: Q01DX009 (ip), vehicle: saline with Tween-80
[3] = dose: 100.0 mg/kg/injection, schedule: Q04DX003 (ip), vehicle: saline
[4] = dose: 200.0 mg/kg/injection, schedule: Q01DX001 (ip), vehicle: saline with Tween-80
[5] = dose: 200.0 mg/kg/injection, schedule: Q01DX009 (ip), vehicle: saline with Tween-80
[6] = dose: 200.0 mg/kg/injection, schedule: Q04DX003 (ip), vehicle: saline
[7] = dose: 400.0 mg/kg/injection, schedule: Q01DX001 (ip), vehicle: saline with Tween-80
[8] = dose: 400.0 mg/kg/injection, schedule: Q04DX003 (ip), vehicle: saline
[9] = dose: 25.0 mg/kg/injection, schedule: Q01DX009 (ip), vehicle: saline with Tween-80
[10] = dose: 50.0 mg/kg/injection, schedule: Q04DX003 (ip), vehicle: saline with Tween-80
[11] = dose: 100.0 mg/kg/injection, schedule: Q04DX003 (ip), vehicle: saline with Tween-80
[12] = dose: 200.0 mg/kg/injection, schedule: Q04DX003 (ip), vehicle: saline with Tween-80
[13] = dose: 400.0 mg/kg/injection, schedule: Q04DX003 (ip), vehicle: saline with Tween-80
[14] = dose: 50.0 mg/kg/injection, schedule: Q01DX009 (ip), vehicle: saline with Tween-80

Measured: T/C

NC(=S)c1csc(CCNC(=O)c2ccccc2)n1
inactive: [1] 100 % of control | [2] 98 % of control | [3] 96 % of control | [4] 97 % of control | [5] 98 % of control | [6] 89 % of control | [7] 97 % of control | dose: 400.0 mg/kg/injection, schedule: Q01DX009 (ip), vehicle: saline with Tween-80 100 % of control | [8] 93 % of control

COc1ccccc1C1N(C)CCCN1C
inactive: dose: 6.25 mg/kg/injection, schedule: Q01DX009 (ip), vehicle: saline with Tween-80 100 % of control | dose: 12.5 mg/kg/injection, schedule: Q01DX009 (ip), vehicle: saline with Tween-80 102 % of control | [9] 102 % of control

CC(=O)OC1C(OC(C)=O)C2C(C)(C)CCCC2(C)C2Cc3occc3C(C)C12 (configuration not stated)
inactive: [10] 96 % of control | dose: 50.0 mg/kg/injection, schedule: Q04DX003 (ip), vehicle: saline 102 % of control | [11] 98 % of control | [3] 98 % of control | [12] 96 % of control | [6] 96 % of control | [13] 91 % of control | [8] 96 % of control

N=C(Oc1ccccc1)C(Cl)(Cl)Cl
inactive: [14] 90 % of control | [2] 95 % of control | [5] 98 % of control

COc1cc[n+](CCc2c[nH]c3ccccc23)cc1
inactive: dose: 12.5 mg/kg/injection, schedule: Q01DX009 (ip), vehicle: saline sonified 97 % of control | dose: 12.5 mg/kg/injection, schedule: Q04DX003 (ip), vehicle: saline with Tween-80 97 % of control | dose: 25.0 mg/kg/injection, schedule: Q01DX009 (ip), vehicle: saline sonified 98 % of control | dose: 25.0 mg/kg/injection, schedule: Q04DX003 (ip), vehicle: saline with Tween-80 101 % of control | dose: 50.0 mg/kg/injection, schedule: Q01DX009 (ip), vehicle: saline sonified 100 % of control | [10] 104 % of control

C=CCNC(=O)C[n+]1cccc(C(=O)NC)c1
inactive: [3] 100 % of control | [6] 102 % of control | [8] 102 % of control

Cc1ccc([Si](C)Cl)cc1
inactive: [2] 96 % of control | [5] 93 % of control

CC1=CC(=O)C2(C)C(C)=C(C)C12C (configuration not stated)
inactive: [9] 104 % of control | [14] 100 % of control | [2] 102 % of control

O=c1cc[nH]c(=S)[nH]1.[Pt]
inactive: dose: 3.13 mg/kg/injection, schedule: Q04DX003 (ip), vehicle: distilled water + Tween-80 94 % of control | dose: 6.25 mg/kg/injection, schedule: Q04DX003 (ip), vehicle: distilled water + Tween-80 97 % of control | dose: 12.5 mg/kg/injection, schedule: Q04DX003 (ip), vehicle: distilled water + Tween-80 94 % of control | dose: 25.0 mg/kg/injection, schedule: Q04DX003 (ip), vehicle: distilled water + Tween-80 97 % of control | dose: 50.0 mg/kg/injection, schedule: Q04DX003 (ip), vehicle: distilled water + Tween-80 97 % of control | dose: 100.0 mg/kg/injection, schedule: Q04DX003 (ip), vehicle: distilled water + Tween-80 103 % of control | dose: 200.0 mg/kg/injection, schedule: Q04DX003 (ip), vehicle: distilled water + Tween-80 102 % of control

CSc1cc(NC(C)=O)nc2nc[nH]c12
inactive: dose: 100.0 mg/kg/injection, schedule: Q01DX001 (ip), vehicle: Klucel (hydroxypropylcellulose) (HPC) 98 % of control | dose: 200.0 mg/kg/injection, schedule: Q01DX001 (ip), vehicle: Klucel (hydroxypropylcellulose) (HPC) 97 % of control

O=C(O)c1ccc([N+](=O)[O-])cc1[N+](=O)[O-]
inactive: [1] 87 % of control | [4] 97 % of control | [7] 91 % of control

O=C(O)c1ccccc1NO
inactive: [11] 90 % of control | [12] 98 % of control | [13] 90 % of control
